In brackets after ≈: the same amount, converted by molar mass. Like-named read-outs stand apart in the source and are kept apart here. Starred links: 1 amine or outer side, 2 acyl side, 3 side chain; linkers in the order of their positions; H or OH if unused. Positions of bridges follow the written chain, without caps; N, C: chain ends. Residues, ends and D or L forms follow the SMILES beside them. Groups on a side chain read outwards from the residue. *: point of attachment. C20 diacid = O=C(O)CCCCCCCCCCCCCCCCCCC(=O)*; C18 diacid = O=C(O)CCCCCCCCCCCCCCCCC(=O)*; γGlu = O=C(O)[C@H](CCC(=O)[*:2])N[*:1]
Legend:
[1] = target: T1, human amylin receptor (amylin 3(a) receptor: human calcitonin receptor + RAMP-3) (Homo sapiens, UniProt O60896+P30988); experiment: Assay (II)a functional CRE-luciferase assay, human amylin receptor; type: cell-based
T1 construct: expressed in transfected cells; host or cells: BHK570
T1 sequence (P30988 25-474): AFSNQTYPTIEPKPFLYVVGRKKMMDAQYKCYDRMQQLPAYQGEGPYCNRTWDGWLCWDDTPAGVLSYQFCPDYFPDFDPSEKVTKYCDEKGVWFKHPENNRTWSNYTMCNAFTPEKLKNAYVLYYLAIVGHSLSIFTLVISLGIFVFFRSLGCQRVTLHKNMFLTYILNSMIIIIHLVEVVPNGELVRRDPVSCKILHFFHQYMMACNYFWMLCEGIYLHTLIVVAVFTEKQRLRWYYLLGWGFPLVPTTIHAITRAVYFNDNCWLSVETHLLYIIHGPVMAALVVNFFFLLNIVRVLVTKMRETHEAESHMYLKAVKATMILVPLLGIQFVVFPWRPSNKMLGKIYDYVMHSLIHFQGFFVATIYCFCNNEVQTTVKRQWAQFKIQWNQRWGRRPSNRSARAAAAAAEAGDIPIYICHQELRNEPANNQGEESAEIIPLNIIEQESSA
T1 sequence (O60896 24-148 partner): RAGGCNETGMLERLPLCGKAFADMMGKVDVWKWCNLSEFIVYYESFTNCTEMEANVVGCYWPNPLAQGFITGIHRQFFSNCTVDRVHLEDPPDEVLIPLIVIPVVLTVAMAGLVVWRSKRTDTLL

[2] = target: T2, human calcitonin receptor (Homo sapiens, UniProt P30988); experiment: Assay (II)a functional CRE-luciferase assay, human calcitonin receptor; type: cell-based
T2 construct: expressed in transfected cells; host or cells: BHK570
T2 sequence (P30988 25-474): T1 sequence (P30988 25-474)

[3] = Assay (III) ThT fibrillation assay for physical stability; type: physicochemical; conditions: ThT fibrillation assay
Method in brief: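 Freshly prepared formulations, pH-adjusted, with 1 μM ThT; four or eight replicates incubated at 37 °C under 960 rpm orbital shaking. Fluorescence (ex 444/em 485 nm) read every 20 min; […]. Peptide concentration measured by RP-HPLC before and after the run.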

[4] = Assay (IV) determination of solubility; type: physicochemical
Method in brief: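 Solubility is measured across pH 3.0–8.0 by mixing a ~500 nmol/ml aqueous polypeptide stock 1:1 with 100 mM glycylglycine or bistrispropane buffers. Samples stand 18 hours at room temperature, then are centrifuged and the soluble concentration is determined by HPLC.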

[5] = Table 2, BHK amylin 3(a)-receptor/CRE-luc cells
[6] = Table 7, human calcitonin (CTa) receptor
[7] = bistrispropane buffer, pH 6, pH 6.0, read-out: Solubility pH 6.0
[8] = bistrispropane buffer, pH 6.5, pH 6.5, read-out: Solubility pH 6.5
[9] = bistrispropane buffer, pH 7, pH 7.0, 18 hours at room temperature, Table 3, read-out: Solubility pH 7.0
[10] = bistrispropane buffer, pH 7, pH 7.0, read-out: Solubility pH 7.0
[11] = bistrispropane buffer, pH 7.5, pH 7.5, read-out: Solubility pH 7.5
[12] = bistrispropane buffer, pH 8, pH 8.0, read-out: Solubility pH 8.0
[13] = glycylglycine buffer, pH 3, pH 3.0, read-out: Solubility pH 3.0
[14] = glycylglycine buffer, pH 4, pH 4.0, 18 hours at room temperature, Table 2, read-out: Solubility pH 4.0
[15] = glycylglycine buffer, pH 4, pH 4.0, read-out: Solubility pH 4.0
[16] = glycylglycine buffer, pH 5, pH 5.0, read-out: Solubility pH 5.0

CC[C@H](C)[C@H](NC(=O)[C@@H]1CCCN1C(=O)CNC(=O)[C@H](Cc1ccccc1)NC(=O)[C@H](CC(N)=O)NC(=O)[C@H](CC(N)=O)NC(=O)[C@H](CO)NC(=O)[C@H](CO)NC(=O)[C@H](Cc1c[nH]cn1)NC(=O)[C@H](Cc1c[nH]cn1)NC(=O)[C@H](CC(C)C)NC(=O)[C@H](Cc1ccccc1)NC(=O)[C@H](CCC(=O)O)NC(=O)[C@H](C)NC(=O)[C@H](CC(C)C)NC(=O)[C@H](CCCNC(=N)N)NC(=O)[C@H](CCC(N)=O)NC(=O)[C@@H](NC(=O)[C@H](C)NC(=O)[C@@H]1CSSC[C@H](NC(=O)[C@H](Cc2c[nH]cn2)NC(=O)CNC(=O)CC[C@H](NC(=O)CCCCCCCCCCCCCCCCCCC(=O)O)C(=O)O)C(=O)N[C@@H](CC(N)=O)C(=O)N[C@@H]([C@@H](C)O)C(=O)N[C@@H](C)C(=O)N[C@@H]([C@@H](C)O)C(=O)N1)[C@@H](C)O)C(=O)N[C@@H](CC(C)C)C(=O)N1CCC[C@H]1C(=O)N1CCC[C@H]1C(=O)N[C@H](C(=O)N[C@@H](CC(N)=O)C(=O)N[C@H](C(=O)NCC(=O)N[C@@H](CO)C(=O)N[C@@H](CC(N)=O)C(=O)N[C@H](C(=O)N1CCC[C@H]1C(N)=O)[C@@H](C)O)C(C)C)[C@@H](C)O [Example 92, N-alpha-[(S)-4-Carboxy-4-(19-carboxynonadecanoylamino)butyryl]-Gly-[His1,Glu14,His17,Pro37]-pramlintide] ({C20 diacid-γGlu}-GHCNTATCATQRLAEFLHHSSNNFGPILPPTNVGSNTP-NH2; disulfide 3-8 (inferred); C-terminus assumed)
EC50 [1, 5]: 52 pM | EC50 [2, 6]: 49 pM | ThT pH 4.0 lag time (h) [3]: 15.3 h | solubility at 18 h [4, 7]: > 200 µM | solubility at 18 h [4, 8]: > 200 µM | solubility at 18 h [4, 9]: > 200 µM | solubility at 18 h [4, 10]: > 200 µM | solubility at 18 h [4, 11]: > 200 µM | solubility at 18 h [4, 12]: > 200 µM | solubility at 18 h [4, 13]: > 200 µM | solubility at 18 h [4, 14]: > 200 µM | solubility at 18 h [4, 15]: > 200 µM | solubility at 18 h [4, 16]: > 200 µM

CC[C@H](C)[C@H](NC(=O)[C@@H]1CCCN1C(=O)CNC(=O)[C@H](Cc1ccccc1)NC(=O)[C@H](CC(N)=O)NC(=O)[C@H](CC(N)=O)NC(=O)[C@H](CO)NC(=O)[C@H](CO)NC(=O)[C@H](Cc1c[nH]cn1)NC(=O)[C@H](Cc1c[nH]cn1)NC(=O)[C@H](CC(C)C)NC(=O)[C@H](Cc1ccccc1)NC(=O)[C@H](CCC(=O)O)NC(=O)[C@H](C)NC(=O)[C@H](CC(C)C)NC(=O)[C@H](CCCNC(=N)N)NC(=O)[C@H](CCC(N)=O)NC(=O)[C@@H](NC(=O)[C@H](C)NC(=O)[C@@H]1CSSC[C@H](NC(=O)[C@@H](N)CCCCNC(=O)CC[C@H](NC(=O)CCCCCCCCCCCCCCCCC(=O)O)C(=O)O)C(=O)N[C@@H](CC(N)=O)C(=O)N[C@@H]([C@@H](C)O)C(=O)N[C@@H](C)C(=O)N[C@@H]([C@@H](C)O)C(=O)N1)[C@@H](C)O)C(=O)N[C@@H](CC(C)C)C(=O)N1CCC[C@H]1C(=O)N1CCC[C@H]1C(=O)N[C@H](C(=O)N[C@@H](CC(N)=O)C(=O)N[C@H](C(=O)NCC(=O)N[C@@H](CO)C(=O)N[C@@H](Cc1c[nH]cn1)C(=O)N[C@H](C(=O)N[C@@H](Cc1ccc(O)cc1)C(N)=O)[C@@H](C)O)C(C)C)[C@@H](C)O [Example 94, N-epsilon1-[(S)-4-Carboxy-4-(17-carboxyheptadecanoylamino)butyryl]-[Glu14,His17,His35]-pramlintide] (H-K([γGlu-C18 diacid])CNTATCATQRLAEFLHHSSNNFGPILPPTNVGSHTY-NH2; disulfide 2-7 (inferred); N-terminus assumed)
EC50 [1, 5]: 120 pM | EC50 [2, 6]: 286 pM | ThT pH 4.0 lag time (h) [3]: 11.3 h | solubility at 18 h [4, 7]: > 200 µM | solubility at 18 h [4, 8]: > 200 µM | solubility at 18 h [4, 9]: 138 µM (≈ 614 µg/mL) | solubility at 18 h [4, 10]: 138 µM (≈ 614 µg/mL) | solubility at 18 h [4, 11]: > 200 µM | solubility at 18 h [4, 12]: > 200 µM | solubility at 18 h [4, 13]: > 200 µM | solubility at 18 h [4, 14]: > 200 µM | solubility at 18 h [4, 15]: > 200 µM | solubility at 18 h [4, 16]: > 200 µM

CC[C@H](C)[C@H](NC(=O)[C@@H]1CCCN1C(=O)CNC(=O)[C@H](Cc1ccccc1)NC(=O)[C@H](CC(N)=O)NC(=O)[C@H](CC(N)=O)NC(=O)[C@H](CO)NC(=O)[C@H](CO)NC(=O)[C@H](Cc1c[nH]cn1)NC(=O)[C@H](Cc1c[nH]cn1)NC(=O)[C@H](CC(C)C)NC(=O)[C@H](Cc1ccccc1)NC(=O)[C@H](CCC(=O)O)NC(=O)[C@H](C)NC(=O)[C@H](CC(C)C)NC(=O)[C@H](CCCNC(=N)N)NC(=O)[C@H](CCC(N)=O)NC(=O)[C@@H](NC(=O)[C@H](C)NC(=O)[C@@H]1CSSC[C@H](NC(=O)[C@H](CCCNC(=N)N)NC(=O)CC[C@H](NC(=O)CCCCCCCCCCCCCCCCCCC(=O)O)C(=O)O)C(=O)N[C@@H](CC(N)=O)C(=O)N[C@@H]([C@@H](C)O)C(=O)N[C@@H](C)C(=O)N[C@@H]([C@@H](C)O)C(=O)N1)[C@@H](C)O)C(=O)N[C@@H](CC(C)C)C(=O)N1CCC[C@H]1C(=O)N1CCC[C@H]1C(=O)N[C@H](C(=O)N[C@@H](CC(N)=O)C(=O)N[C@H](C(=O)NCC(=O)N[C@@H](CO)C(=O)N[C@@H](Cc1c[nH]cn1)C(=O)N[C@H](C(=O)N[C@@H](Cc1ccc(O)cc1)C(N)=O)[C@@H](C)O)C(C)C)[C@@H](C)O [Example 95, N-alpha-[(S)-4-Carboxy-4-(19-carboxynonadecanoylamino)butyryl]-[Arg1,Glu14,His17,His35]-pramlintide] ({C20 diacid-γGlu}-RCNTATCATQRLAEFLHHSSNNFGPILPPTNVGSHTY-NH2; disulfide 2-7 (inferred))
EC50 [1, 5]: 82 pM | EC50 [2, 6]: 175 pM | ThT pH 4.0 lag time [3]: >45 h | ThT pH 4.0 lag time (h) [3]: >45 h | solubility at 18 h [4, 7]: > 200 µM | solubility at 18 h [4, 8]: 16 µM (≈ 72.1 µg/mL) | solubility at 18 h [4, 10]: 2 µM (≈ 9.01 µg/mL) | solubility at 18 h [4, 11]: 11 µM (≈ 49.6 µg/mL) | solubility at 18 h [4, 12]: 51 µM (≈ 230 µg/mL) | solubility at 18 h [4, 13]: > 200 µM | solubility at 18 h [4, 14]: > 200 µM | solubility at 18 h [4, 15]: > 200 µM | solubility at 18 h [4, 16]: > 200 µM

CC[C@H](C)[C@H](NC(=O)[C@@H]1CCCN1C(=O)CNC(=O)[C@H](Cc1ccccc1)NC(=O)[C@H](CC(N)=O)NC(=O)[C@H](CC(N)=O)NC(=O)[C@H](CO)NC(=O)[C@H](CO)NC(=O)[C@H](Cc1c[nH]cn1)NC(=O)[C@@H](NC(=O)[C@H](CC(C)C)NC(=O)[C@H](Cc1ccccc1)NC(=O)[C@H](CC(N)=O)NC(=O)[C@H](C)NC(=O)[C@H](CC(C)C)NC(=O)[C@H](CCCNC(=N)N)NC(=O)[C@H](CCC(N)=O)NC(=O)[C@@H](NC(=O)[C@H](C)NC(=O)[C@@H]1CSSC[C@H](NC(=O)[C@H](CCCNC(=N)N)NC(=O)CC[C@H](NC(=O)CCCCCCCCCCCCCCCCCCC(=O)O)C(=O)O)C(=O)N[C@@H](CC(N)=O)C(=O)N[C@@H]([C@@H](C)O)C(=O)N[C@@H](C)C(=O)N[C@@H]([C@@H](C)O)C(=O)N1)[C@@H](C)O)C(C)C)C(=O)N[C@@H](CC(C)C)C(=O)N1CCC[C@H]1C(=O)N1CCC[C@H]1C(=O)N[C@H](C(=O)N[C@@H](CC(N)=O)C(=O)N[C@H](C(=O)NCC(=O)N[C@@H](CO)C(=O)N[C@@H](CC(N)=O)C(=O)N[C@H](C(=O)N1CCC[C@H]1C(N)=O)[C@@H](C)O)C(C)C)[C@@H](C)O [Example 97] ({C20 diacid-γGlu}-RCNTATCATQRLANFLVHSSNNFGPILPPTNVGSNTP-NH2; disulfide 2-7 (inferred); C-terminus assumed)
EC50 ([1]; Table 11): 34 pM | EC50 ([2]; Table 11, read-out: CTa receptor human EC50): 38.5 pM | ThT pH 4.0 lag time (h) [3]: 1.7 h | solubility at 18 h [4, 7]: > 200 µM | solubility at 18 h [4, 8]: > 200 µM | solubility at 18 h [4, 10]: > 200 µM | solubility at 18 h [4, 11]: > 200 µM | solubility at 18 h [4, 12]: > 200 µM | solubility at 18 h [4, 13]: > 200 µM | solubility at 18 h [4, 15]: > 200 µM | solubility at 18 h [4, 16]: > 200 µM
